Experimental data taken from ChEMBL document CHEMBL1159243, “Chemical and biological investigation of the polar constituents of the starfish Luidia clathrata, collected in the Gulf of Mexico” (1995).

What was measured:
Bacillus subtilis = assay: Antimicrobial activity against Bacillus subtilis at 50 ug/disk after 24 to 72 hrs; format: functional; conditions: read-out: IZ
Staphylococcus aureus = assay: Antimicrobial activity against Staphylococcus aureus at 50 ug/disk after 24 to 72 hrs; format: functional; conditions: read-out: IZ

SMILES | zone of inhibition at 50 µg/disc (Bacillus subtilis) [mm] | zone of inhibition at 50 µg/disc (Staphylococcus aureus) [mm]
C[C@H](CO)CCC[C@@H](C)[C@H]1[C@@H](O)[C@H](O)[C@H]2[C@@H]3[C@H](O)[C@@H](O)[C@H]4C[C@@H](O)CC[C@]4(C)[C@H]3CC[C@]12C | 2 | 1
CC(C)[C@@H](O)CC[C@@H](C)[C@H]1C[C@H](OS(=O)(=O)O)[C@H]2[C@@H]3C[C@@H](O)[C@@]4(O)C[C@@H](O)CC[C@]4(C)[C@H]3CC[C@@]21C | 3 | 1
